Data on four compounds can be found in patent US20250009780A1, “AGENTS ENCODING CLDN6 AND CD3 BINDING ELEMENTS FOR TREATING CLDN6-POSITIVE CANCERS” (BIONTECH SE, priority 2021, published 2025).

Data set [1] in a line: Metabolism of ALC-0159 in vitro and ex vivo. In kind it is in vitro ADME, mouse, rat, monkey and human. Conditions: yields N,N-ditetradecylamine; across species. From the text:
The metabolism of ALC-0159, was examined in vitro using blood, liver S9 fractions and hepatocytes, all from mouse, rat, monkey and human and ex vivo in the rat plasma, urine, feces, and liver from the PK study. […] This hydrolytic metabolism was observed across the species evaluated.

Data set [2] can be described thus: Rat IV PK study of lipid excipient ALC-0159. In kind it is in vivo, Wistar Han rats. Conditions: for half-life: Wistar Han, rat, plasma, iv, 1.96 mg ALC-0159/kg, 1.96 mg ALC-0159/kg single IV. How it is done: BNT142 contains the PEG lipid excipient ALC-0159 in the nanoparticle. […] ALC-0159 was then cleared from plasma with a terminal elimination ty, of 72.7 h. The estimated percent of lipid dose distributed to the liver was ˜20%.

A short description of data set [3]: In vitro metabolic stability, S9 fractions. In kind it is in vitro ADME, mouse, rat, monkey, and human. Conditions: 120 min, all species. Here is the method: (§1) The in vitro metabolic stability of ALC-0366 (aminolipid) was evaluated in mouse, rat, monkey, and human liver microsomes, S9 fractions, and hepatocytes. ALC-0366 was stable over 120 min in liver microsomes (remaining ALC-0366 >89%) and S9 fractions (remaining ALC-0366 >88%) and over 240 min in hepatocytes (remaining ALC-0366 >94%) in all species and test systems.

A short description of data set [4]: In vitro metabolic stability, hepatocytes. In kind it is in vitro ADME, mouse, rat, monkey, and human. Conditions: 240 min, all species. Here is the method: as §1
The nature of data set [5]: In vitro metabolic stability, liver microsomes. Conditions: 120 min, all species. In kind it is in vitro ADME, mouse, rat, monkey, and human. Here is the method: as §1
In general terms: Liver microsomes are vesicles of endoplasmic reticulum, rich in cytochrome P450 enzymes.

Data set [6] has as its system human PBMCs (T cells). The data set can be described thus: T-cell proliferation assay (CFSE-labeled PBMCs, flow cytometry). Conditions: presence as well as absence of target cells. In kind it is cell-based. From the text:
CFSE-labeled human PBMCs from three healthy donors were co-cultured with CLDN6-positive PA-1 and OV-90 target cells or with CLDN6-negative but control TAA-positive NUGC-4 as well as target-negative MDA-MB-231 control cells in a 12-well culture plate format. An effector-to-target-cell ratio of 10:1 was applied. In addition, PBMCs without (−) target cells were included separately. […] OKT3 antibody (anti-human CD3; black bars) served as positive control for target-independent CD3-driven T-cell proliferation. After 72 h of incubation, the percentages of proliferating T cells were analyzed by flow cytometry.
HEK-293T-17 producer cells were transfected with BNT142 or a control RiboMab-encoding RNA. Supernatants containing RiboMab02.1 or the control RiboMab (specific for an irrelevant TAA) were used as test items. Two concentrations (100 or 1 ng/mL) of RiboMab-containing supernatant were added to co-cultures of carboxyfluorescein succinimidyl ester (CFSE)-labeled human PBMCs and target-positive or -negative cells. PA-1 or OV-90 served as CLDN6-positive and MDA-MB-231 as target-negative cells. CLDN6-negative NUGC-4 cells (expressing the irrelevant TAA) as well as PBMCs in the absence of any target cells were included as further specificity controls. PBMCs from three healthy donors were compared in this assay. After 72 h of incubation, T cells were analyzed by flow cytometry to determine target-dependent proliferation.
Background: In flow cytometry, cells or beads pass a laser one at a time.

Another data set has as its system human PBMCs. The data set can be described thus: In vitro human cytokine release (multiplex ELISA on T-cell activation assay supernatants). In kind it is cell-based. Conditions: positive control. How it is done: Cytokine concentration values for each donor (means of technical triplicates) are shown. Filled symbols represent values with target cells while open symbols represent values without target cells.
Cell culture supernatants obtained from the T-cell activation assay were analyzed to investigate the RiboMab02.1-dependent induction of on- and off-target cytokine release. The levels of human pro-inflammatory cytokines IFN-γ, IL-1β, IL-2, IL-6, IL-10 and TNF-α were measured using a customized multiplex ELISA kit.
A general note: ELISA stands for enzyme-linked immunosorbent assay.

Data set [7] concerns human PBMCs (T cells). The data set can be described thus: T-cell activation assay (CD69/CD25, flow cytometry). The class given is cell-based. Conditions: with and without target cells (data not shown). Here is the method:
Human PBMCs from three healthy donors (effector cells) were cultured in the presence and absence of CLDN6-positive PA-1 cells (target cells) at a 10:1 effector-to-target-cell ratio. RiboMab02.1-containing mouse serum was serially-diluted (10-fold, 10-point; range: 4.0×10^−6 to 4,000 ng/mL) prior to use in the assay. After 48 h of co-incubation, cells were stained with anti-CD5, anti-CD69 and anti-CD25 antibodies for flow cytometric analysis of T cells. Shown here is the total T-cell activation normalized to samples incubated with mock serum from Luc_RNA-LNP-treated mice. Percentages of activated T cells are shown for each individual donor (left) and for all three donors as mean (right). Filled symbols represent values with and black, open symbols without target cells.
RiboMab02.1-containing as well as mock serum samples were obtained from mice administered either with BNT142 or luciferase encoding RNA-LNP (Luc_RNA-LNP; mock). Human PBMCs from three healthy donors were used as effector cells. Serum samples were serially-diluted (10-fold, 10-point), starting at 4,000 ng/mL, and added to PBMCs cultured alone or together with CLDN6-positive PA-1 target cells at an effector-to-target-cell ratio of 10:1. After 48 h of incubation, T cells were analyzed by flow cytometry for surface expression of the early and late activation markers CD69 and CD25, respectively. […] OKT3 positive control led to >50% T-cell activation with and without target cells (data not shown). Upregulation of CD69 on T cells was higher than that of CD25; CD25-positive cells were almost exclusively CD69 double-positive, pointing to an early activation state (data not shown).

Data set [8] relates to human pro-inflammatory cytokines in NSG/PBMC mice. The data set can be described thus: Human cytokine release in serum of NSG/PBMC mice. The class given is in vivo, mouse. Conditions: 100 μg reference protein; 6-hour time point. Here is the method:
An additional non-tumor-bearing (w/o tumor) group administered with 1 μg BNT142 was included. (A) Concentrations of human cytokines (IFN-γ, IL-6, IL-2, IL-10, TNF-α and IL-1β) in mouse serum as determined by multiplex ELISA at the 6- (n=8) and 72-hour (n=4) time points. Data was normalized to saline-administered animals of the respective time points. Horizontal lines indicate medians. Unpaired and paired samples were compared using the Mann-Whitney U test or Wilcoxon signed-rank test, respectively. […] Horizontal lines indicate means.
The human pro-inflammatory cytokines IFN-γ, IL-1β, IL-2, IL-6, IL-10 and TNF-α were measured in serum samples of OV-90 human xenograft tumor-bearing NSG/PBMC mice obtained after 6 and 72 h of the third BNT142 administration (see above). An additional group of tumor-free NSG/PBMC mice was treated with 1 μg BNT142. […] Data were normalized to the values obtained with the saline control group at the respective time points.

Data set [9] has as its system 6,239 full-length human plasma membrane proteins and cell surface-tethered human secreted proteins. Nature of the data set: Cell microarray off-target binding assay, remaining panel. Conditions: fixed HEK293 cells. The source says: (§2) The tribody was screened for binding against fixed human HEK293 cells, individually overexpressing 6,239 different full-length human plasma membrane proteins and cell surface-tethered human secreted proteins, including 371 heterodimers.

The target of the next data set is T1, CLDN6 (Homo sapiens, UniProt P56747).
T1 construct: expressed in transfected cells
T1 sequence (P56747 1-220): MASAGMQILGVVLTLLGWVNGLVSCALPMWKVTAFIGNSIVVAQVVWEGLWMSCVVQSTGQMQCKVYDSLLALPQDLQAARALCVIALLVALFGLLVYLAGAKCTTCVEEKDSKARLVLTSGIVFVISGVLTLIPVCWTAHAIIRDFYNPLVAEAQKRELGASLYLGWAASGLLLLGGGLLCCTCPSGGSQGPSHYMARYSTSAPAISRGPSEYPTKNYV
Nature of the data set: Cell microarray off-target binding assay, CLDN6. Conditions: fixed HEK293 cells overexpressing target.
From the text: as §2

Data set [10] has as its system CLDN6-positive human ovarian carcinoma (OV-90) xenograft. The data set can be described thus: OV-90 xenograft model in PBMC-humanized NSG mice. In kind it is in vivo, mouse. How it is done:
NSG mice bearing advanced SC tumor xenografts of OV-90 cells (mean tumor volume at treatment start=100 mm^3) were engrafted with human PBMCs as effector cells by IP injection. Tumor volume was measured twice per week with a digital caliper. […] (A) Treatment schedule. (B) Tumor volume of individual mice at designated time points. (C) Overview of the median tumor volume per group, each comprising 13 to 14 mice at the start of the study and a minimum of five mice at the last data points. The vertical dotted lines represent the time points of IV administration of test/control items. Four mice (five mice from the 0.1 μg BNT142 group) from all groups were euthanized on Day 38 to obtain samples for ex vivo assays. (D) Number of CD3-positive cells per mm^2 of xenograft tissue as determined by immunohistochemical (IHC) staining using an anti-human CD3 antibody. […] Horizontal lines represent the mean (n=4 to 5). (E) Percentage of CLDN6-positive cells in tumor xenografts of mice from the respective test and control groups as determined by IHC staining using an anti-human CLDN6 antibody. Tumor xenografts were dissected at different time points over the course of the study. Horizontal lines represent the mean (n=8 to 10). […] Reddish-brown staining (dark in the black and white figure) indicates a positive IHC signal while the bluish-purple areas indicate an absence of positive staining (negative IHC signal).
To determine the anti-tumor efficacy of BNT142 in vivo, a CLDN6-positive human ovarian carcinoma (OV-90) xenograft mouse model was used. Briefly, immunodeficient male and female NOD.Cg-Prkd^scid IL2rg^tm1Wjl/SzJ (NSG) mice were subcutaneously (SC) inoculated with human OV-90 ovarian carcinoma cells. Mice with established tumors (mean size ≥30 mm^3) were engrafted intraperitoneally (IP) with human PBMCs from a healthy donor (resulting mouse model annotated as NSG/PBMC). Seven days later, a treatment regimen comprising five weekly single IV bolus injections of BNT142 or control items was initiated. BNT142 was administered at doses of 0.1 or 1 μg (˜0.004 and 0.04 mg/kg) per mouse. […]

The target in a further data set is T2, CLDN9 (Homo sapiens, UniProt O95484).
T2 sequence (O95484 1-217): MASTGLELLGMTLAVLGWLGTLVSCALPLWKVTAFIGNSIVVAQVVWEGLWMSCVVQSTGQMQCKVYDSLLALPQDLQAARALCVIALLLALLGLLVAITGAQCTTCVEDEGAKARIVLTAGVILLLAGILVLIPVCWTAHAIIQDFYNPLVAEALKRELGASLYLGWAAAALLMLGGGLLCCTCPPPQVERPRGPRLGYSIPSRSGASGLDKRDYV
Nature of the data set: Cell microarray off-target binding assay, CLDN9. Conditions: fixed HEK293 cells overexpressing target. Details: individually overexpressing 6,239 different full-length human plasma membrane proteins; expressed in transfected cells; host or cells: fixed human HEK293 cells.
From the text: as §2

Like-named read-outs stand apart in the source and are kept apart here.

The term half-life denotes how long it takes for the measured level to halve. As to `CCCCCCCCCCCCCCN(CCCCCCCCCCCCCC)C(=O)COCCOCCOCCOCCOCCOCCOCCOCCOCCOCCOCCOCCOCCOCCOCCOCCOCCOCCOCCOCCOCCOCCOCCOCCOCCOCCOCCOCCOCCOCCOCCOCCOCCOCCOCCOCCOCCOCCOCCOCCOCCOCCOCCOCCOCCOC` [ALC-0159, 2-[(Polyethylene glycol)-2000]-N,N-ditetradecylacetamide], the metabolism entry in [1] was “metabolized relatively slowly by amide bond hydrolysis”. In data set [2] (IV administration of RNA-LNP), the excretion in urine entry was “no detectable excretion” and the “percentage of dose excreted unchanged in feces” value is recorded as about 50%. Further, in data set [2] (read-out: initial plasma half-life (converted)), the half-life is 103 min. In [2] (read-out: terminal elimination half-life in plasma (converted)), the half-life is 4360 min. Besides, in data set [2] (during 2 wk study), the “drop of plasma concentration” value was “approximately 8,000 fold”. In [2] (single IV), the “estimated percent of lipid dose distributed to the liver” value is about 20%.
For the compound `CCCCCCC(CCCC)C(=O)OCCCCCCCCCN(CCCO)CCCCCCCCCOC(=O)C(CCCC)CCCCCC` (centres unmarked) [ALC-0366, ((3-Hydroxypropyl)azanediyl)bis(nonane-9,1-diyl) bis(2-butyloctanoate)], the “remaining ALC-0366” value in data set [3] is reported as over 88%; in data set [4] it was over 94%; in [5], over 89%.
Turning to “OKT3: human CD3-specific antibody used as positive control for T-cell activation [reference compound]”, in the data set on human PBMCs (T cells) [6], the “T-cell activation (positive control in proliferation assay)” value is “strong activation”. The cytokine release result in the data set on human PBMCs was “induced cytokine release in the presence as well as absence of target cells”. The compound further came in with a T-cell activation in the data set with human PBMCs (T cells) [7] of over 50%.
In the case of “reference protein: recombinant purified CD3×(CLDN6)2 tribody reference protein, sequence-identical to RiboMab02.1”, in data set [8], the “human cytokine elevation in serum” value is “transient but significant elevation of all six cytokines”. Besides, the other binding entry in [9] is “No other binding was observed”. Further, in the data set with CLDN6, the “interaction with CLDN6” value is “specific interaction”. For the same compound, the “start of tumor volume shrinkage” value in [10] (100 μg reference protein IV once weekly x5) is given as “after the third treatment”. Further, in data set [10] (100 μg reference protein, 72 h after third injection), the “TIL per mm^2 tumor tissue (average)” value was 1,542 per mm^2. For the same compound, the tumor reduction result in [10] (treated groups in contrast to negative control groups) is listed as “significant tumor reduction”. The “interaction with CLDN9” value with CLDN9 was “weak off-target interaction”.
